Measured values reported in ChEMBL document CHEMBL1201862, “PubChem BioAssay data set” (2004).
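A five-concentration, 48-hour dose response in 96-well plates underlies each endpoint, interpolated linearly between surrounding concentrations. Here, GI50 denotes the concentration required for 50% inhibition of growth.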 Active and inactive are the calls of the source. No stated cut-off is given here; in the data, active = GI50 up to about 1.1 µM and inactive = higher. Square brackets hold non-standard residues; d marks the D form. Peptide text beside a SMILES is read from it. * marks the point of attachment. ξ: configuration not given here. ξW = NC(Cc1c[nH]c2ccccc12)C(=O)O; X29 = O=C(O)[C@H]1CCC[C@H]1N*; ξF = NC(Cc1ccccc1)C(=O)O; Boc = CC(C)(C)OC(=O)*; ξK = NCCCCC(N)C(=O)O; ξT = CC(O)C(N)C(=O)O; tBu = CC(C)(C)*

Legend:
Assay in all cases: NCI-60 cell line screen, 48 h
LOX IMVI = test system: LOX IMVI
UACC-62 = test system: UACC-62
786-0 = test system: 786-0
HL-60 = test system: HL-60
SK-OV-3 = test system: SK-OV-3
NCI-H226 = test system: NCI-H226
SN12C = test system: SN12C
T47D = test system: T47D
HT-29 = test system: HT-29
Hs-578T = test system: Hs-578T
MDA-N = test system: MDA-N
SF-295 = test system: SF-295
CAKI-1 = test system: CAKI-1
U-251 = test system: U-251
DU-145 = test system: DU-145
TK-10 = test system: TK-10
MOLT-4 = test system: MOLT-4
MCF7 = test system: MCF7
EKVX = test system: EKVX
NCI-H460 = test system: NCI-H460

Compound | GI50 (LOX IMVI) | GI50 (UACC-62) | GI50 (786-0) | GI50 (HL-60) | GI50 (SK-OV-3) | GI50 (NCI-H226) | GI50 (SN12C) | GI50 (T47D) | GI50 (HT-29) | GI50 (Hs-578T) | GI50 (MDA-N) | GI50 (SF-295) | GI50 (CAKI-1) | GI50 (U-251) | GI50 (DU-145) | GI50 (TK-10) | GI50 (MOLT-4) | GI50 (MCF7) | GI50 (EKVX) | GI50 (NCI-H460)
C=C1CC[C@H](O)C(C)(C)[C@@H]1CC/C(C)=C/CC/C=C(\C)CC/C=C(\C)CCC=C(C)C | > 100 µM (inactive) | > 100 µM (inactive) | > 100 µM (inactive) | 13.5 µM (inactive) | > 100 µM (inactive) | 69.2 µM (inactive) | 66.2 µM (inactive) | 18.7 µM (inactive) | > 100 µM (inactive) | > 100 µM (inactive) | > 100 µM (inactive) | > 100 µM (inactive) | > 100 µM (inactive) | > 100 µM (inactive) | > 100 µM (inactive) | > 100 µM (inactive) | > 100 µM (inactive) | 27.6 µM (inactive) | 97.9 µM (inactive) | > 100 µM (inactive)
COC(=O)[C@@H]1C=CCN1S(=O)(=O)c1ccc(C)cc1 | > 100 µM (inactive) | 38 µM (inactive) | 32.9 µM (inactive) | 24.2 µM (inactive) | > 100 µM (inactive) | > 100 µM (inactive) | > 100 µM (inactive) | > 100 µM (inactive) | > 100 µM (inactive) | > 100 µM (inactive) | 29.2 µM (inactive) | > 100 µM (inactive) | 20.2 µM (inactive) | 31.1 µM (inactive) | > 100 µM (inactive) | > 100 µM (inactive) | 37.4 µM (inactive) | > 100 µM (inactive) | > 100 µM (inactive) | 42.5 µM (inactive)
C/C(=N\NC(N)=S)c1sc(-n2nc(-c3ccccc3)cc2-c2ccccc2)nc1C | 71.9 µM (inactive) | > 100 µM (inactive) | > 100 µM (inactive) | 54.6 µM (inactive) | 62.1 µM (inactive) | > 100 µM (inactive) | > 100 µM (inactive) | 23.2 µM (inactive) | 37.5 µM (inactive) | > 100 µM (inactive) | > 100 µM (inactive) | > 100 µM (inactive) | > 100 µM (inactive) | > 100 µM (inactive) | > 100 µM (inactive) | > 100 µM (inactive) | 27.9 µM (inactive) | 51.6 µM (inactive) | 50.1 µM (inactive) | > 100 µM (inactive)
CCCC(=O)Nc1cc([N+](=O)[O-])c([N+](=O)[O-])cc1OC | 2.79 µM (inactive) | 18.2 µM (inactive) | 26.3 µM (inactive) | 13.1 µM (inactive) | 13.9 µM (inactive) | 23.1 µM (inactive) | 15.6 µM (inactive) | 3.8 µM (inactive) | 13.3 µM (inactive) | 14.4 µM (inactive) | 15.1 µM (inactive) | 10.1 µM (inactive) | 16 µM (inactive) | 16.3 µM (inactive) | 17.8 µM (inactive) | 17.2 µM (inactive) | > 10 µM (inactive) | 29.5 µM (inactive) | 17.7 µM (inactive) | 13.3 µM (inactive)
CCC(C)C1NC(=O)C(NC(=O)c2c3nc4c(C(=O)NC5C(=O)NC(C(C)CC)C(=O)N6CCCC6C(=O)N(C)CC(=O)N(C)C(C(C)C)C(=O)OC5C)ccc(C)c4oc-3c(C)c(=O)c2O)C(C)OC(=O)C(C(C)C)N(C)C(=O)CN(C)C(=O)C2CCCN2C1=O (stereo not given) | 0.532 µM (active) | 1.14 µM (inactive) | 3.37 µM (inactive) | 2.81 µM (inactive) | 11.5 µM (inactive) | 0.881 µM (active) | 1.17 µM (inactive) | 2.84 µM (inactive) | 1.06 µM (active) | 4.49 µM (inactive) | 4.21 µM (inactive) | 3.61 µM (inactive) | 10.3 µM (inactive) | 1.05 µM (active) | 5.78 µM (inactive) | 10.2 µM (inactive) | 1.01 µM (active) | 1.11 µM (active) | 14.2 µM (inactive) | 0.174 µM (active)
COC[C@H]1C(=O)NCC(=O)N2N=CCC[C@H]2C(=O)N(O)[C@H](C)C(=O)O[C@@H](C(C)C)[C@H](NC(=O)[C@@](C)(O)[C@]2(O)CC[C@@H](CC(C)C)[C@H](C)O2)C(=O)N2NCCC[C@@H]2C(=O)N1O | 0.0178 µM (active) | 0.0176 µM (active) | 0.0174 µM (active) | 0.0148 µM (active) | 0.0273 µM (active) | 0.0197 µM (active) | 0.0185 µM (active) | 0.0228 µM (active) | 0.0172 µM (active) | 0.0179 µM (active) | 0.018 µM (active) | 0.0193 µM (active) | 0.133 µM (active) | 0.0168 µM (active) | 0.0343 µM (active) | 0.0218 µM (active) | 0.0164 µM (active) | 0.0168 µM (active) | 0.0292 µM (active) | 0.0166 µM (active)
Cn1c(=O)c2nc(CS(=O)(=O)Cc3nc4c(=O)n(C)c(=O)n(C)c4[nH]3)[nH]c2n(C)c1=O | > 100 µM (inactive) | > 100 µM (inactive) | > 100 µM (inactive) | > 100 µM (inactive) | > 100 µM (inactive) | > 100 µM (inactive) | > 100 µM (inactive) | > 100 µM (inactive) | > 100 µM (inactive) | > 100 µM (inactive) | > 100 µM (inactive) | > 100 µM (inactive) | > 100 µM (inactive) | 33.2 µM (inactive) | > 100 µM (inactive) | > 100 µM (inactive) | > 100 µM (inactive) | 28.1 µM (inactive) | > 100 µM (inactive) | > 100 µM (inactive)
C[C@@H](CC(O)C(O)C(C)(C)O)C1CCC23CC12CCC1[C@@]2(C)CCC(=O)C(C)(C)C2CC(OC2OC(CO)C(O)C(O)C2O)[C@]13C (stereo not given in full) | > 10 µM (inactive) | > 10 µM (inactive) | > 10 µM (inactive) | > 10 µM (inactive) | > 10 µM (inactive) | > 10 µM (inactive) | > 10 µM (inactive) | > 10 µM (inactive) | > 10 µM (inactive) | > 10 µM (inactive) | > 10 µM (inactive) | > 10 µM (inactive) | > 10 µM (inactive) | > 10 µM (inactive) | > 10 µM (inactive) | > 10 µM (inactive) | > 10 µM (inactive) | > 10 µM (inactive) | > 10 µM (inactive) | > 10 µM (inactive)
COc1ccc(CC(=O)N2CCC3(C)CC(=O)CC=C23)cc1OC (stereo not given) | > 100 µM (inactive) | > 100 µM (inactive) | > 100 µM (inactive) | > 100 µM (inactive) | > 100 µM (inactive) | > 100 µM (inactive) | > 100 µM (inactive) | > 100 µM (inactive) | > 100 µM (inactive) | > 100 µM (inactive) | > 100 µM (inactive) | > 100 µM (inactive) | > 100 µM (inactive) | > 100 µM (inactive) | > 100 µM (inactive) | < 0.01 µM (active) | > 100 µM (inactive) | > 100 µM (inactive) | > 100 µM (inactive) | 
CC(OC(C)(C)C)C(NC(=O)C(CCCCNC(=O)OC(C)(C)C)NC(=O)C(Cc1c[nH]c2ccccc12)NC(=O)C(N)Cc1ccccc1)C(=O)NC(Cc1ccccc1)C(=O)N[C@@H]1CCC[C@@H]1C(=O)O (stereo not given in full) (H-[ξF][ξW][ξK](Boc)[ξT](tBu)[ξF]-X29) | 20.8 µM (inactive) | 33.4 µM (inactive) | > 100 µM (inactive) | 29 µM (inactive) | 38.8 µM (inactive) | 28.5 µM (inactive) | 28.2 µM (inactive) | 33.8 µM (inactive) | 29.6 µM (inactive) | 19.9 µM (inactive) | 52.1 µM (inactive) | > 100 µM (inactive) | > 100 µM (inactive) | 24.3 µM (inactive) | 46.2 µM (inactive) |  | 41.6 µM (inactive) | 27 µM (inactive) | > 100 µM (inactive) | > 100 µM (inactive)
O=c1c2cc(S(=O)(=O)O)ccc2nc(COc2ccc(Oc3ccc(Cl)cc3Cl)cc2)n1C(=S)Nc1ccc(Cl)cc1 | 16.6 µM (inactive) | 15.8 µM (inactive) | 19.2 µM (inactive) | 0.457 µM (active) | 21.3 µM (inactive) | 18.2 µM (inactive) | 18.8 µM (inactive) | 34.6 µM (inactive) | 20.6 µM (inactive) | 20.6 µM (inactive) | 22.1 µM (inactive) | 19.9 µM (inactive) | 27.9 µM (inactive) | 17.2 µM (inactive) | 27.7 µM (inactive) | 18.3 µM (inactive) |  | 20 µM (inactive) | 21.8 µM (inactive) | 17.9 µM (inactive)
C=Cc1c(C)c2cc3nc(c4c5[nH]c(cc6nc(cc1[nH]2)C(C)=C6CC)c(C)c5C(=O)C4C(=O)OC)C(CCC(=O)OC)C3C (stereo not given) | > 100 µM (inactive) | > 100 µM (inactive) | > 100 µM (inactive) | > 100 µM (inactive) | > 100 µM (inactive) | > 100 µM (inactive) | > 100 µM (inactive) | > 100 µM (inactive) | > 100 µM (inactive) | 81.3 µM (inactive) | > 100 µM (inactive) | > 100 µM (inactive) | > 100 µM (inactive) | > 100 µM (inactive) | 40.4 µM (inactive) | > 100 µM (inactive) |  | > 100 µM (inactive) | > 100 µM (inactive) | > 100 µM (inactive)
CC(C)=CCN1CC(C)C(=O)Nc2cc(Cl)ccc21 (stereo not given) | 16.2 µM (inactive) |  | 19.2 µM (inactive) | 47.8 µM (inactive) | 24.8 µM (inactive) | 15.7 µM (inactive) | 15.9 µM (inactive) | 24.9 µM (inactive) | 19.2 µM (inactive) | 36.5 µM (inactive) | 26 µM (inactive) | 27.1 µM (inactive) | 18.5 µM (inactive) | 27.4 µM (inactive) | 30 µM (inactive) | 19.3 µM (inactive) | > 100 µM (inactive) | 18.7 µM (inactive) | 26.2 µM (inactive) | 20.5 µM (inactive)
